Measurements from patent publication US11731976B2, “3-(ethoxydifluoromethyl)-6-(5-fluoro-6-(2,2,2-trifluoroethoxy)pyridin-3-yl)-[1,2,4]triazolo[4,3-a]pyridine as an ion channel modulator” (Praxis Precision Medicines, Inc., priority 2018, dated 2023).

Columns and labels:
hNaV1.6-N984K = biological target: T1, hNaV1.6-N984K (Homo sapiens, UniProt Q9UQD0, N984K); assay: Voltage ramp activated sodium current (Ramp INa), PatchXpress, HEK-293; assay type: cell-based; conditions: HEK293; percent inhibition of enhanced ramp current at 1 μM; +600 mv/sec ramp from −100 mV to +20 mV
T1 construct: expressed in transfected cells; host or cells: HEK-293
Procedure: (§1) Functional characterization of exemplary compounds to modulate INa expressed by various human isoforms and disease-causing mutant voltage-gated sodium channels was accomplished using the PatchXpress high throughput electrophysiology platform (Molecular Devices, Sunnyvale, Calif.). HEK-293 cells expressing a recombinant, human NaV1.X sodium channel (either hNaV1.6-WT, hNaV1.6-R223G, hNaV1.6-N984K, hNaV1.6-N1768D, hNaV1.1-WT, hNaV1.2-WT, hNaV1.5-WT, hNaV1.7-WT, or hNaV1.8-WT) were grown in DMEM/high-glucose Dulbecco's modified, 10% FBS, 2 mM sodium pyruvate, 10 mM HEPES and 400 μg/mL G418. Cells were grown to 50%-80% confluency prior to harvesting. Trypsinized cells were washed, allowed to recover for 1 hour and then resuspended in extracellular recording solution at a concentration of 1×10^6 cells/ml. The onboard liquid handling facility of the PatchXpress was used for dispensing cells and applying test compounds. INa amplitude and stability were determined by analyzing the peak current amplitude.
(§2) The Nav1.6 mutant channels (hNaV1.6-R223G, hNaV1.6-N984K, hNaV1.6-N1768D) express an enhanced sodium current in response to a ramp voltage depolarization when compared to the wild-type hNaV1.6-WT. This enhanced, depolarizing ramp current is thought to contribute to enhanced neuronal excitability. The degree of block with exemplary compounds (e.g., as described herein) was measured using a +600 mv/sec voltage ramp from −100 mV to +20 mV. The ramp current was defined as the area of the current measured between −55 mV and +15 mV. Following steady state block with exemplary compounds (e.g., as described herein) at 1 μM, a Na^+ free solution containing an impermeant cation (e.g., Choline or NMDG) was added for determination of the baseline current level for offline subtraction. Percent inhibition of enhanced ramp current was calculated as (compound−baseline)/(control−baseline)*100, where control represents the ramp current recorded in the absence of compound. In this table, “A” indicates inhibition between less than 0% to 50% and “B” indicates inhibition of greater than 50% and N/A indicates the compound was not tested.

hNaV1.6-N1768D = biological target: T2, hNaV1.6-N1768D (Homo sapiens, UniProt Q9UQD0, N1768D); assay: as above; assay type: cell-based; conditions: HEK293; percent inhibition of enhanced ramp current at 1 μM; +600 mv/sec ramp from −100 mV to +20 mV
T2 construct: expressed in transfected cells; host or cells: HEK-293
Procedure: as §1, §2

hNaV1.6-R223G = biological target: T3, hNaV1.6-R223G (Homo sapiens, UniProt Q9UQD0, R223G); assay: as above; assay type: cell-based; conditions: HEK293; percent inhibition of enhanced ramp current at 1 μM; +600 mv/sec ramp from −100 mV to +20 mV
T3 construct: expressed in transfected cells; host or cells: HEK-293
Procedure: as §1, §2

human NaV1.6 (hNaV1.6) = biological target: T4, human NaV1.6 (hNaV1.6) (Homo sapiens, UniProt Q9UQD0); assay: Modulation of late sodium current (INaL), PatchXpress electrophysiology, HEK-293 cells expressing hNaV1.6; assay type: cell-based; conditions: HEK293, late current evoked by 300 nM ATX-II, read-out: NaV 1.6 Assay Data: percent inhibition of INaL at hNaV1.6
T4 construct: expressed in transfected cells; host or cells: HEK-293
Procedure: Functional characterization of exemplary compounds to modulate INaL expressed by the NaV1.6 voltage-gated sodium channel was accomplished using the PatchXpress™ high throughput electrophysiology platform (Molecular Devices, Sunnyvale, Calif.). HEK-293 cells expressing recombinant, human NaV1.6 (hNaV1.6) were grown in DMEM/high-glucose Dulbecco's modified, 10% FBS, 2 mM sodium pyruvate, 10 mM HEPES and 400 μg/mL G418. Cells were grown to 50%-80% confluency prior to harvesting. Trypsinized cells were washed, allowed to recover for 1 hour and then resuspended in extracellular recording solution at a concentration of 1×10^6 cells/ml. The onboard liquid handling facility of the PatchXpress was used for dispensing cells and applying test compounds. NaV late currents were evoked by the application of 300 nM ATX-II. INaL was evoked by depolarizing pulses to 0 mV for 200 ms from a non-inactivating holding potential (e.g., −120 mV) at a frequency of 0.1 Hz. INaL amplitude and stability were determined by analyzing the mean current amplitude over the final 20 ms of the test pulse. Following steady state block with exemplary compounds (e.g., as described herein), a Na+ free solution containing an impermeant cation (e.g., Choline or NDMG) was added to confirm the identify of the sodium current. Percent steady-state inhibition of INaL was calculated as: [(INaL_compound)/(INaL_control)]*100, where INaL_compound and INaL_control represent INaL recorded in the presence or absence of compound, respectively.

hNaV1.8-WT = biological target: T5, hNaV1.8-WT (Homo sapiens, UniProt Q9Y5Y9); assay: Voltage step activated sodium current (Peak INa), PatchXpress, HEK-293; assay type: cell-based; conditions: HEK293; percent inhibition measured at 1 μM; step to 0 mV from half-inactivation holding potential
T5 construct: expressed in transfected cells; host or cells: HEK-293
Procedure: as §1
(§3) Peak INa was evoked by depolarizing steps to 0 mV for 20 ms from a holding potential which evoked half-inactivation (e.g., −60 mV) at a frequency of 0.1 Hz. The voltage of half-inactivation was determined for each cell using a 5 sec prepulse to membrane potentials between −120 mV and −20 mV followed immediately by a voltage step to a fully activating membrane voltage (e.g., 0 mV). Following steady state block with exemplary compounds (e.g., as described herein), the degree of inhibition was measured using the average of three consecutive voltage steps. Percent steady-state inhibition of INa was calculated as: [(INa_compound)/(INa_control)]*100, where INa_compound and INa_control represent INa recorded in the presence or absence of compound, respectively.
(§4) In this table, “A” indicates inhibition between less than 0% to 50% and “B” indicates inhibition of greater than 50% and N/A indicates the compound was not tested.

hNaV1.7-WT = biological target: T6, hNaV1.7-WT (Homo sapiens, UniProt Q15858); assay: as above; assay type: cell-based; conditions: HEK293; percent inhibition measured at 1 μM; step to 0 mV from half-inactivation holding potential
T6 construct: expressed in transfected cells; host or cells: HEK-293
Procedure: as §1, §3, §4

hNaV1.5-WT = biological target: T7, hNaV1.5-WT (Homo sapiens, UniProt Q14524); assay: as above; assay type: cell-based; conditions: HEK293; percent inhibition measured at 1 μM; step to 0 mV from half-inactivation holding potential
T7 construct: expressed in transfected cells; host or cells: HEK-293
Procedure: as §1, §3, §4

hNaV1.6-WT = biological target: T8, hNaV1.6-WT (Homo sapiens, UniProt Q9UQD0); assay: as above; assay type: cell-based; conditions: HEK293; percent inhibition measured at 1 μM; step to 0 mV from half-inactivation holding potential
T8 construct: expressed in transfected cells; host or cells: HEK-293
Procedure: as §1, §3, §4

Male CD-1 mice = assay: Maximal Electroshock induced Seizure (MES) assay in mice; assay type: in vivo, mouse; conditions: 35% HPCD, pre-treatment 30 min, recorded up to 60 seconds post stimulus
Procedure: Male CD-1 mice, weighing 25-35 g were assessed in the Maximal Electroshock induced Seizure (MES) assay. Briefly, mice were dosed with compound (n=12/group) according to the dosing parameters in Table 20 and the latency to induce tonic hind limb extension following transauricular electrical stimulation (50 Hz, 50 mA, 0.8 sec duration, pulse width of 10 ins) was recorded up to 60 seconds post stimulus.

T4 sequence (Q9UQD0 whole entry): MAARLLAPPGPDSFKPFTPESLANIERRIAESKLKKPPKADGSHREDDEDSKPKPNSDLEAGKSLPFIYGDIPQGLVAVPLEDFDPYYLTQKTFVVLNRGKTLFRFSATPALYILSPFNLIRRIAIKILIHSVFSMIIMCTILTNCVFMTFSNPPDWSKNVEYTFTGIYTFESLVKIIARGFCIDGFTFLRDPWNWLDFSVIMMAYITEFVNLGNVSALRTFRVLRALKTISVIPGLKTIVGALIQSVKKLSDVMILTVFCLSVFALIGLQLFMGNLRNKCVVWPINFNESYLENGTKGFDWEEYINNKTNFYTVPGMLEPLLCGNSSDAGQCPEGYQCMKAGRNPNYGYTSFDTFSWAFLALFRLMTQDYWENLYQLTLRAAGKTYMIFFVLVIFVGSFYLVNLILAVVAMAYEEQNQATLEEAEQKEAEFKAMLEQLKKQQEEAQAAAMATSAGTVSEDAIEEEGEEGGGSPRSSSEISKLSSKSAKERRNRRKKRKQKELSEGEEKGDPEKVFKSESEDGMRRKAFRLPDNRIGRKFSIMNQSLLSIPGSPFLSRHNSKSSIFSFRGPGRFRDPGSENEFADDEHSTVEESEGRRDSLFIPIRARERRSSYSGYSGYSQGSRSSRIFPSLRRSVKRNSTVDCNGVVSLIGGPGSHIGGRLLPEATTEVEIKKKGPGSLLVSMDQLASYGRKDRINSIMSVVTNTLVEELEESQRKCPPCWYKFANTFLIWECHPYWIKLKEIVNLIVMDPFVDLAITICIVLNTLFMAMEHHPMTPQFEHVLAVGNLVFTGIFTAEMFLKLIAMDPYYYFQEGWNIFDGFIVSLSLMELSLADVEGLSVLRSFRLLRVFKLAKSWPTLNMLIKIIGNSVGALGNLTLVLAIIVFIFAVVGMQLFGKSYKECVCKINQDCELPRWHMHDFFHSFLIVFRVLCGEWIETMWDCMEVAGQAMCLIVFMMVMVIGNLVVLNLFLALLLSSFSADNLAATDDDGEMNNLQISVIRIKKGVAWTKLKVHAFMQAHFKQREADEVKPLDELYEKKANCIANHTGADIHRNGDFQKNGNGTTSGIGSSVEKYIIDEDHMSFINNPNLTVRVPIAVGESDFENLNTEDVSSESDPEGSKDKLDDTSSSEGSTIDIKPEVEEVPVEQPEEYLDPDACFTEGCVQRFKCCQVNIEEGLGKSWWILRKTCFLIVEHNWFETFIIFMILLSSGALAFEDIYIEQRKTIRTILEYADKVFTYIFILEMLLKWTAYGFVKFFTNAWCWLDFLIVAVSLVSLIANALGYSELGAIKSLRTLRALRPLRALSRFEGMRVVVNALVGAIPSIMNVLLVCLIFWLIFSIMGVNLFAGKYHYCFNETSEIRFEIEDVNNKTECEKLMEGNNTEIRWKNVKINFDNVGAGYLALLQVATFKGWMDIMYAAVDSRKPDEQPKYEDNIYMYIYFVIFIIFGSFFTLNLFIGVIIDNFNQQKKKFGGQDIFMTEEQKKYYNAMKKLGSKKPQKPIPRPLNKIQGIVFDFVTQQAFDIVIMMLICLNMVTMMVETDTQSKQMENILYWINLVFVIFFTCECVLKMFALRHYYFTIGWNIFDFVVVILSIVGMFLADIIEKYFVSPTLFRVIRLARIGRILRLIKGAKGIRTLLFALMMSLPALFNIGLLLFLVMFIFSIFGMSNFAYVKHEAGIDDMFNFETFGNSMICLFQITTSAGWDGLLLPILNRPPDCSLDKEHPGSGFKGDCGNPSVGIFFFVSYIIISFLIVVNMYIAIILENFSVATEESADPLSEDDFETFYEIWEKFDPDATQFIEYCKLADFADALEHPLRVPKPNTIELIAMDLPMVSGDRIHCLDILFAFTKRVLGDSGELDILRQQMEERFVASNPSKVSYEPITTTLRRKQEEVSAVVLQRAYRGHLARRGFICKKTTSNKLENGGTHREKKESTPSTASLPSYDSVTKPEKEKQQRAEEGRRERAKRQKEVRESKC
T1 sequence (Q9UQD0 whole entry N984K): as the sequence (Q9UQD0 whole entry) above, with N984K counted along it
T2 sequence (Q9UQD0 whole entry N1768D): as the sequence (Q9UQD0 whole entry) above, with N1768D counted along it
T8 sequence (Q9UQD0 whole entry): as the sequence (Q9UQD0 whole entry) above
T3 sequence (Q9UQD0 whole entry R223G): as the sequence (Q9UQD0 whole entry) above, with R223G counted along it
T5 sequence (Q9Y5Y9 whole entry): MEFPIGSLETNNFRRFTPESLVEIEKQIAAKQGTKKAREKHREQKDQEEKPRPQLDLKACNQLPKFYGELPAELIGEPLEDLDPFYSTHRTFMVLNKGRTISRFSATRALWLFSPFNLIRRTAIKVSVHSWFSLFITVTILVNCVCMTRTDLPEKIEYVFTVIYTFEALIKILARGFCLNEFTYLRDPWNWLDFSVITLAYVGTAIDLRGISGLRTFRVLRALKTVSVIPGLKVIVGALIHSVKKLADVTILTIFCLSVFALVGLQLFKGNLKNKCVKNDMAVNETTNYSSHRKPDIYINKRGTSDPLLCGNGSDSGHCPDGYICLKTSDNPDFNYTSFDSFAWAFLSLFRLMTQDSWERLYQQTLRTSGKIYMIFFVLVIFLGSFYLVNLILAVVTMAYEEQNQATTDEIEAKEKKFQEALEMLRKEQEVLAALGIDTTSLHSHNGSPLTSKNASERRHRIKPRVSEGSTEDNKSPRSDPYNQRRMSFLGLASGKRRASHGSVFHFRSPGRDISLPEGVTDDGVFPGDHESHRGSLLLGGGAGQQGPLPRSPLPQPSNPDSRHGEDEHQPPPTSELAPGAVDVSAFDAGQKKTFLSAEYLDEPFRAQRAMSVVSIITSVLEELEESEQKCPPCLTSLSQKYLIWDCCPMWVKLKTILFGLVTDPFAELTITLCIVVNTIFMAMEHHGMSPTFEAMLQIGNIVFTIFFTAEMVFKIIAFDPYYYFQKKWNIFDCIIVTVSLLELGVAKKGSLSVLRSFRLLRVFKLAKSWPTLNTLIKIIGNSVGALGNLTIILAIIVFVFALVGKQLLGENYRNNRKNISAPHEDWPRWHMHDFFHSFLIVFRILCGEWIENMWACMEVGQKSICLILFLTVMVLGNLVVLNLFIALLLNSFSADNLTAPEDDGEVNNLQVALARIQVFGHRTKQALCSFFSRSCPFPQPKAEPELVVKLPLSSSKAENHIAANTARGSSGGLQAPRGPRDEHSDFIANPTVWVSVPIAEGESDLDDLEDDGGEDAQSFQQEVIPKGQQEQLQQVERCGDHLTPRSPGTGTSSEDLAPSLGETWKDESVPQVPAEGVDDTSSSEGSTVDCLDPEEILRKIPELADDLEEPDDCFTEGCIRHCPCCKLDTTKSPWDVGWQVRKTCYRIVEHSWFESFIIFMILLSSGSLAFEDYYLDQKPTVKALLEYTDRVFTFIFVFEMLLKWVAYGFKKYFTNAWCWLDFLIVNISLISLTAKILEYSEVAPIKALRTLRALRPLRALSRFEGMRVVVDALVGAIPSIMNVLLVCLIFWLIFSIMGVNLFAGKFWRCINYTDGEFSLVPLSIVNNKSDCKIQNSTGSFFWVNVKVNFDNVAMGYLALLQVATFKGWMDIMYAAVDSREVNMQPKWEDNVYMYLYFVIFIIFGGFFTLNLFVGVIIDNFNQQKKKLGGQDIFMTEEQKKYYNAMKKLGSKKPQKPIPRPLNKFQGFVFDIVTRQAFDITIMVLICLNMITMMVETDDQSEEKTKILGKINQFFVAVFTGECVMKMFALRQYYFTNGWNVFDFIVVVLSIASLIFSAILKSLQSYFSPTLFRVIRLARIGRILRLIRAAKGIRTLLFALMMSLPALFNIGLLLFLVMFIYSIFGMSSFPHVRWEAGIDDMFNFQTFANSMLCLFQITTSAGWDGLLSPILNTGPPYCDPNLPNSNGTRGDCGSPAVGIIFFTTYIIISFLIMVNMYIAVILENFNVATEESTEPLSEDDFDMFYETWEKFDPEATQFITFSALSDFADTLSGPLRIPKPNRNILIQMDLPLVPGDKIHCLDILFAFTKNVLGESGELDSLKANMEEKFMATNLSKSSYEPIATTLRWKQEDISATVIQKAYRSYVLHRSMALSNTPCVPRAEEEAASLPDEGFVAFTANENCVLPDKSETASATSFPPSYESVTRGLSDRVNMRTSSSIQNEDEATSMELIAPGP

SMILES | inhibition at 1 µM (human NaV1.6 (hNaV1.6)) [%] | also measured
COCc1nnc2cnc(-c3cnc(OC(C)(C)C(F)(F)F)c(F)c3)cn12 [Compound 48] | > 70 | inhibition at 1 µM (hNaV1.6-N984K): < 50%; inhibition at 1 µM (hNaV1.6-N1768D): > 50%; inhibition at 1 µM (hNaV1.6-R223G): < 50%; inhibition at 1 µM (hNaV1.8-WT): > 50%; inhibition at 1 µM (hNaV1.7-WT): > 50%; inhibition at 1 µM (hNaV1.5-WT): > 50%; inhibition at 1 µM (hNaV1.6-WT): > 50%; Mean latency to tonic extension (Male CD-1 mice; 3 mg/kg PO): 42.5 s; Mean latency to tonic extension (Male CD-1 mice; 10 mg/kg PO): 60 s
COCc1nnc2cc(C)c(-c3cnc(O[C@@H](C)C(F)(F)F)c(F)c3)nn12 [Compound 70, 6-[5-fluoro-6-[(1S)-2,2,2-trifluoro-1-methyl-ethoxy]-3-pyridyl]-3-(methoxymethyl)-7-methyl-[1,2,4]triazolo[4,3-b]pyridazine] | < 30 | –
COCc1nnc2cc(C)c(-c3cnc(OCC(F)(F)F)c(F)c3)nn12 [Compound 71, 6-[5-fluoro-6-(2,2,2-trifluoroethoxy)-3-pyridyl]-3-(methoxymethyl)-7-methyl-[1,2,4]triazolo[4,3-b]pyridazine] | < 30 | –
COCc1nnc2cc(C)c(-c3cnc(O[C@H](C)C(F)(F)F)c(F)c3)nn12 [Compound 72, 6-[5-fluoro-6-[(1R)-2,2,2-trifluoro-1-methyl-ethoxy]-3-pyridyl]-3-(methoxymethyl)-7-methyl-[1,2,4]triazolo[4,3-b]pyridazine] | < 30 | –
COC(F)(F)c1nnc2cnc(-c3ccc(OC4CC(F)(F)C4)nc3)cn12 [Compound 73, 3-(difluoro(methoxy)methyl)-6-(6-(3,3-difluorocyclobutoxy)pyridin-3-yl)-[1,2,4]triazolo[4,3-a]pyrazine] | > 70 | –
FC(F)(F)COc1ccc(-c2cn3c(C(F)(F)OC4CC4)nnc3cn2)cn1 [Compound 74, 3-(cyclopropoxydifluoromethyl)-6-(6-(2,2,2-trifluoroethoxy)pyridin-3-yl)-[1,2,4]triazolo[4,3-a]pyrazine] | > 70 | –
Fc1cc(-c2cn3c(C(F)(F)OC4CC4)nnc3cn2)cnc1OCC(F)(F)F [Compound 75, 3-(cyclopropoxydifluoromethyl)-6-(5-fluoro-6-(2,2,2-trifluoroethoxy)pyridin-3-yl)-[1,2,4]triazolo[4,3-a]pyrazine] | > 70 | –
COC(F)(F)c1nnc2cnc(-c3cnc(OC4CC(F)(F)C4)c(F)c3)cn12 [Compound 76, 3-(difluoro(methoxy)methyl)-6-(6-(3,3-difluorocyclobutoxy)-5-fluoropyridin-3-yl)-[1,2,4]triazolo[4,3-a]pyrazine] | > 70 | –
CCOC(F)(F)c1nnc2cnc(-c3cnc(OC4CC(F)(F)C4)c(F)c3)cn12 [Compound 77, 6-(6-(3,3-difluorocyclobutoxy)-5-fluoropyridin-3-yl)-3-(ethoxydifluoromethyl)-[1,2,4]triazolo[4,3-a]pyrazine] | > 70 | –
FC1(F)CC(Oc2ccc(-c3cn4c(C(F)(F)OC5CC5)nnc4cn3)cn2)C1 [Compound 78, 3-(cyclopropoxydifluoromethyl)-6-(6-(3,3-difluorocyclobutoxy)pyridin-3-yl)-[1,2,4]triazolo[4,3-a]pyrazine] | > 70 | –
CCOCc1nnc2cnc(-c3cnc(OC(C)(C)C(F)(F)F)c(F)c3)cn12 [Compound 79, 3-(ethoxymethyl)-6-(5-fluoro-6-((1,1,1-trifluoro-2-methylpropan-2-yl)oxy)pyridin-3-yl)-[1,2,4]triazolo[4,3-a]pyrazine] | > 70 | –
CCOC(F)(F)c1nnc2cnc(-c3ccc(OCC(F)(F)F)nc3)cn12 [Compound 81, 3-(ethoxydifluoromethyl)-6-(6-(2,2,2-trifluoroethoxy)pyridin-3-yl)-[1,2,4]triazolo[4,3-a]pyrazine] | > 70 | –
CC(C)COC(F)(F)c1nnc2cnc(-c3cnc(OCC(F)(F)F)c(F)c3)cn12 [Compound 82, 3-(difluoro(isobutoxy)methyl)-6-(5-fluoro-6-(2,2,2-trifluoroethoxy)pyridin-3-yl)-[1,2,4]triazolo[4,3-a]pyrazine] | > 70 | –
COC(F)(F)c1nnc2ccc(-c3cnc(OC4CC(F)(F)C4)c(F)c3)cn12 [Compound 84, 3-(difluoro(methoxy)methyl)-6-(6-(3,3-difluorocyclobutoxy)-5-fluoropyridin-3-yl)-[1,2,4]triazolo[4,3-a]pyridine] | > 70 | –
CCOC(F)(F)c1nnc2ccc(-c3cnc(OC4CC(F)(F)C4)c(F)c3)cn12 [Compound 85, 6-(6-(3,3-difluorocyclobutoxy)-5-fluoropyridin-3-yl)-3-(ethoxydifluoromethyl)-[1,2,4]triazolo[4,3-a]pyridine] | > 70 | –
CCOC(F)(F)c1nnc2cnc(-c3ccc(O[C@H](C)C(F)(F)F)nc3)cn12 [Compound 86, (R)-3-(ethoxydifluoromethyl)-6-(6-((1,1,1-trifluoropropan-2-yl)oxy)pyridin-3-yl)-[1,2,4]triazolo[4,3-a]pyrazine] | > 70 | –
COCc1nnc2ccc(-c3ccc(OC(C)(C)C(F)(F)F)nc3)cn12 [Compound 87, 3-(methoxymethyl)-6-(6-((1,1,1-trifluoro-2-methylpropan-2-yl)oxy)pyridin-3-yl)-[1,2,4]triazolo[4,3-a]pyridine] | 30 to 70 | –
CCOC(F)(F)c1nnc2cnc(-c3ccc(OC(C)(C)C(F)(F)F)nc3)cn12 [Compound 88, 3-(ethoxydifluoromethyl)-6-(6-((1,1,1-trifluoro-2-methylpropan-2-yl)oxy)pyridin-3-yl)-[1,2,4]triazolo[4,3-a]pyrazine] | > 70 | –
COCCOC(F)(F)c1nnc2cnc(-c3ccc(OCC(F)(F)F)nc3)cn12 [Compound 89] | 30 to 70 | –
